# Assay results: patent US10065990B2, “Cyclic peptide compound, and preparation method, pharmaceutical composition and use thereof” (HANGZHOU GUANYU BIO-MEDICAL CO., LTD, priority 2013, dated 2018)
# Read-outs that look alike come from different tables or passages of the source.
# How the values were obtained:
# Assay in all cases: MTT cancer cell growth inhibition
# Format in all cases: cell-based
# [1] = tested on: BGC-823 (human gastric cancer cells); conditions: Homo sapiens, BGC-823, 72 h, MTT
# Summary of the method: (§1)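 Seed 1500 cells/well, incubate overnight. Add compound, 10^−5 to 10^−10 M final, n=3; culture 72 h, 37° C., 5% CO2. Add MTT, 4 h. Discard supernatant, dissolve in DMSO. Read 570 nm; calculate viability and GI50.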
# [2] = tested on: Bel-7402 (human hepatoma cells); conditions: Homo sapiens, Bel-7402, 72 h, MTT, 72 hours incubation, Bel-7402 cells; read-out: GI50 Bel-7402
# Summary of the method: as §1
# [3] = tested on: DU145 (human prostate cancer cells); conditions: Homo sapiens, DU-145, 72 h, MTT
# Summary of the method: as §1
# [4] = tested on: HCC827 (human non-small cell lung cancer cells); conditions: Homo sapiens, HCC827, 72 h, MTT, 72 hours incubation, HCC827 cells; read-out: GI50 HCC827
# Summary of the method: as §1
# [5] = tested on: HT1080 (human fibrosarcoma cells); conditions: Homo sapiens, HT-1080, 72 h, MTT
# Summary of the method: as §1
# [6] = tested on: Hela (human cervical cancer cells); conditions: Homo sapiens, HeLa, 72 h, MTT
# Summary of the method: as §1
# [7] = tested on: Huh-7 (human hepatoma cells); conditions: Homo sapiens, Huh-7, 72 h, MTT, 72 hours incubation, Huh-7 cells; read-out: GI50 Huh-7
# Summary of the method: as §1
# [8] = tested on: K562 (human leukemia cells); conditions: Homo sapiens, K562, 72 h, MTT, 72 hours incubation, K562 cells; read-out: GI50 K562
# Summary of the method: as §1
# [9] = tested on: KBM-5 (human chronic myelogenous leukemia); conditions: Homo sapiens, KBM5, 72 h, MTT, 72 hours incubation, KBM-5 cells; read-out: GI50 KBM-5
# Summary of the method: as §1
# [10] = tested on: MDA-MB-231 (breast cancer cells); conditions: Homo sapiens, MDA-MB-231, 72 h, read-out: GI50 MDA-MB-231, MTT, 72 hours incubation, MDA-MB-231 cells
# Summary of the method: as §1
# [11] = tested on: N-87 (human gastric cancer cells); conditions: Homo sapiens, 72 h, MTT, 72 hours incubation, N-87 cells; read-out: GI50 N-87
# Summary of the method: as §1
# [12] = tested on: PANC-1 (Pac-1, human pancreatic cancer cells); conditions: Homo sapiens, PANC-1, 72 h, MTT
# Summary of the method: as §1
# [13] = tested on: SGC-7901 (human gastric cancer cells); conditions: Homo sapiens, SGC-7901, 72 h, MTT, 72 hours incubation, SGC-7901 cells; read-out: GI50 SGC-7901
# Summary of the method: as §1
# [14] = tested on: U937 (human leukemia cells); conditions: Homo sapiens, U-937, 72 h, MTT
# Summary of the method: as §1
# [15] = tested on: lncap (prostate cancer cells); conditions: Homo sapiens, LNCaP, 72 h, MTT
# Summary of the method: as §1
# [16] = BGC-823 cells, 72 hours incubation, read-out: GI50 BG
# [17] = 72 hours, present invention, read-out: GI50 BGC823, a
# [18] = 72 hours, present invention, read-out: GI50 Du145, a
# [19] = HT1080 cells, 72 hours incubation, read-out: GI50 HT1
# [20] = 72 hours, present invention, read-out: GI50 HT1080, a
# [21] = Hela cells, 72 hours incubation, read-out: GI50 Hela
# [22] = 72 hours, present invention, read-out: GI50 Hela, a
# [23] = 72 hours, present invention, read-out: GI50 PANC-1, a
# [24] = PANC-1 cells, 72 hours incubation, read-out: GI50 PAN
# [25] = 72 hours, present invention, read-out: GI50 U937, a
# [26] = 72 hours, present invention, read-out: GI50 lncap, a
# [27] = lncap cells, 72 hours incubation, read-out: GI50 lnca
# [28] = DU145 cells, 72 hours incubation, read-out: GI50 Du1
# [29] = U937 cells, 72 hours incubation, read-out: GI50 U93
SMILES,"GI50 [1, 16] [nM]","GI50 [1, 17] [nM]",GI50 [2] [nM],"GI50 [3, 18] [nM]",GI50 [4] [nM],"GI50 [5, 19] [nM]","GI50 [5, 20] [nM]","GI50 [6, 21] [nM]","GI50 [6, 22] [nM]",GI50 [7] [nM],GI50 [8] [nM],GI50 [9] [nM],GI50 [10] [nM],GI50 [11] [nM],"GI50 [12, 23] [nM]","GI50 [12, 24] [nM]",GI50 [13] [nM],"GI50 [14, 25] [nM]","GI50 [15, 26] [nM]","GI50 [15, 27] [nM]",also measured
C/C=C1\NC(=O)c2cccc(n2)CNC(=O)C[C@@H](/C=C/CCSC(=O)CCCCCCC)OC(=O)[C@H](CC(C)C)NC1=O [Compound 241],100,100,47,3,34,30,34,11,11,64,41,71,29,57,170,170,63,7,25,20,
C/C=C1\NC(=O)c2ccc(SC)c(n2)CNC(=O)C[C@@H](/C=C/CCSC(C)=O)OC(=O)[C@H](CC)NC1=O [Compound 179],30,,65,,25,40,,30,,15,71,61,51,73,,60,19,,,100,"GI50 [3, 28]: 30 nM; GI50 [14, 29]: 50 nM"
C/C=C1\NC(=O)c2cccc(n2)CNC(=O)C[C@@H](/C=C/CCSC(=O)CCCCCCC)OC(=O)[C@H](c2ccc(O)cc2)NC1=O [Compound 238],140,140,31,12,29,20,26,50,55,55,65,52,46,26,77,70,56,15,110,110,"GI50 [3, 28]: 10 nM; GI50 [14, 29]: 10 nM"
C/C=C1\NC(=O)c2cccc(n2)CNC(=O)C[C@@H](/C=C/CCSC(=O)CCCCCCC)OC(=O)[C@H](Cc2cccc3ccccc23)NC1=O [Compound 239],20,22,28,1,31,10,11,11,11,51,63,29,25,46,130,130,35,3,17,10,
C/C=C1\NC(=O)c2nc(ccc2F)CNC(=O)C[C@@H](/C=C/CCSC(=O)CCCCCCC)OC(=O)[C@H](C(C)C)NC1=O [Compound 30],,,82,,82,,,,,37,38,82,37,30,,,35,,,,"GI50 ([1]; 72 hours incubation, read-out: GI50 BG): 30 nM; GI50 ([3]; 72 hours incubation, read-out: GI50 Du1): 30 nM; GI50 ([5]; 72 hours incubation, read-out: GI50 HT1): 80 nM; GI50 ([6]; 72 hours incubation, read-out: GI50 Hela): 80 nM; GI50 ([12]; 72 hours incubation, read-out: GI50 PAN): 80 nM; GI50 ([14]; 72 hours incubation, read-out: GI50 U93): 30 nM; GI50 ([15]; 72 hours incubation, read-out: GI50 lnca): 30 nM"
